For 23 molecules, IC50 results are on record in patent publication US20240124431A1, “2,3-DIHYDRO-4H-BENZO[B][1,4]OXAZIN-4-YL)(5-(PHENYL)-PYRIDIN-3-YL)METHANONE DERIVATIVES AND SIMILAR COMPOUNDS AS CYP11A1 INHIBITORS FOR THE TREATMENT OF PROSTATE CANCER” (ORION CORPORATION, priority 2020, published 2024).

Usually IC50 stands for the point on the concentration scale where inhibition reaches its midpoint.

Structures are written as SMILES. Bounds are passed on as bounds.

In this assay the target is T1, CYP11A1 (Homo sapiens, UniProt P05108).
T1 construct: endogenous in cells; host or cells: NCI-H295R
T1 sequence (P05108 40-521): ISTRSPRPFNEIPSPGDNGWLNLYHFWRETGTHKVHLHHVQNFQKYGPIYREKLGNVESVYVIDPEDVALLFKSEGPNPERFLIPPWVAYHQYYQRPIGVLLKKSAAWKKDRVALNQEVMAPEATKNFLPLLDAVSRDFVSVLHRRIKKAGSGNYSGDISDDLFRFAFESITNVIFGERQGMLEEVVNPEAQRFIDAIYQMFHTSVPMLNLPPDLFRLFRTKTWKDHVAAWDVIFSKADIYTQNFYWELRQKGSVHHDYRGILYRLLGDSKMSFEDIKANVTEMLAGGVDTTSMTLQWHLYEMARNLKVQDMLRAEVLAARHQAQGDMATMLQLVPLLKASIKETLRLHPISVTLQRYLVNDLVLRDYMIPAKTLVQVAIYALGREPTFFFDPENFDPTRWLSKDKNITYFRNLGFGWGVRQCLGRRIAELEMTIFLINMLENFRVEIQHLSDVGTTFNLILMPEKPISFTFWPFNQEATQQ
The assay is described as follows: CYP11A1 inhibition: pregnenolone biosynthesis measured by ELISA in NCI-H295R cells. In kind it is cell-based. The settings on record: NCI-H295R cells treated for 24 hours, 10 concentrations in duplicates, read-out: IC50 on CYP11A1 inhibition (Group). The procedure: The ability of the test compounds to inhibit pregnenolone biosynthesis was measured by enzyme-linked immunosorbent assay (ELISA) detecting pregnenolone (Abnova Pregnenolone ELISA Kit, KA1912). […] To determine the half maximal inhibitory concentration (IC50) of the test compounds on CYP11A1 inhibition, the cells were treated for 24 hours with increasing concentrations of the test compound. The final DMSO concentration was 0.4%. Medium samples were diluted 1:6 and pregnenolone amounts determined with ELISA. Manufacturer's recommended protocols were used and pregnenolone (Sigma-Aldrich, P9129) standards were prepared in cell culture medium. Absorbance (A450) was measured with Envision plate reader (PerkinElmer). All the test compounds were studied at 10 concentrations in duplicates.
In general terms: An ELISA detects its analyte on a solid surface through an enzyme-linked reagent.
As for `COc1ccc2c(c1)N(C(=O)c1cncc(-c3ccccc3)c1)CCC2` [Compound 69, (7-Methoxy-3,4-dihydroquinolin-1(2H)-yl)(5-phenylpyridin-3-yl)methanone], the IC50 fell in the range of 0.201 to 2.5 µM.
As for `O=C(c1cncc(-c2cccnc2)c1)N1CCCc2ccccc21` [Compound 70, [3,3′-Bipyridin]-5-yl(3,4-dihydroquinolin-1(2H)-yl)methanone], the figure is 0.201 to 2.5 µM; as for `Cc1ccc(-c2cncc(C(=O)N3CCOc4ccccc43)c2)cc1` [Compound 71, (2,3-Dihydro-4H-benzo[b][1,4]oxazin-4-yl)(5-(p-tolyl)pyridin-3-yl)methanone], 0.201 to 2.5 µM.
The result for `O=C(c1cncc(-c2ccc3c(c2)OCC3)c1)N1CCOC2CCCCC21` (centres unmarked) [Compound 72, (5-(2,3-Dihydrobenzofuran-6-yl)pyridin-3-yl)(octahydro-4H-benzo[b][1,4]-oxazin-4-yl)methanone] reads 0.201 to 2.5 µM; that for `Cn1cc(-c2cncc(C(=O)N3CCOc4ccccc43)c2)cn1` [Compound 73, (2,3-Dihydro-4H-benzo[b][1,4]oxazin-4-yl)(5-(1-methyl-1H-pyrazol-4-yl)-pyridin-3-yl)methanone], 0.201 to 2.5 µM; that for `O=C(c1cncc(N2CCCC2)c1)N1CCOc2ccccc21` [Compound 74, (2,3-Dihydro-4H-benzo[b][1,4]oxazin-4-yl)(5-(pyrrolidin-1-yl)pyridin-3-yl)-methanone], 0.201 to 2.5 µM.
For `CC1(C)C2CN(c3cncc(C(=O)N4CCOc5ccccc54)c3)CC21` (centres unmarked) [Compound 75], the IC50 lay within 0.201 to 2.5 µM.
For the molecule `O=C(c1cncc(N2CCCC2)n1)N1CCOc2ccccc21` [Compound 76, (2,3-dihydro-4H-benzo[b][1,4]oxazin-4-yl)(6-(pyrrolidin-1-yl)pyrazin-2-yl)-methanone], the IC50 lay within 0.201 to 2.5 µM.
The result for `O=C(c1cncc(N2CC(F)(F)C2)n1)N1CCOc2ccccc21` [Compound 77, (6-(3,3-Difluoroazetidin-1-yl)pyrazin-2-yl)(2,3-dihydro-4H-benzo[b][1,4]oxazin-4-yl)methanone] reads 0.201 to 2.5 µM; that for `CN1CCN(c2cncc(C(=O)N3CCOc4ccccc43)n2)CC1` [Compound 78, (2,3-Dihydro-4H-benzo[b][1,4]oxazin-4-yl)(6-(4-methylpiperazin-1-yl)pyrazin-2-yl)methanone], 0.201 to 2.5 µM.
`O=C(Cc1cncc(-c2ccc(F)cc2)c1)N1CCCc2ccccc21` [Compound 79, 1-(3,4-Dihydroquinolin-1(2H)-yl)-2-(5-(4-fluorophenyl)pyridin-3-yl)ethan-1-one]: the IC50 lay within 0.201 to 2.5 µM.
Turning to `COc1ccc(-c2cncc(CC(=O)N3CCOc4ccccc43)c2)cc1` [Compound 80, 1-(2,3-Dihydro-4H-benzo[b][1,4]oxazin-4-yl)-2-(5-(4-methoxyphenyl)pyridin-3-yl)ethan-1-one], the IC50 is 0.201 to 2.5 µM.
Take `c1ccc(-c2cncc(CN3CCOc4ccccc43)c2)cc1` [Compound 81, 4-((5-Phenylpyridin-3-yl)methyl)-3,4-dihydro-2H-benzo[b][1,4]oxazine]: the IC50 lay in the range of 0.201 to 2.5 µM.
As for `Cc1cn(-c2cncc(C(=O)N3CCCc4ccccc43)c2)cn1` [Compound 82, (3,4-Dihydroquinolin-1(2H)-yl)(5-(4-methyl-1H-imidazol-1-yl)pyridin-3-yl)-methanone], the figure is 0.201 to 2.5 µM.
The result for `Cc1cn(-c2cncc(C(=O)N3CCCc4ccccc43)n2)cn1` [Compound 83, (3,4-Dihydroquinolin-1(2H)-yl)(6-(4-methyl-1H-imidazol-1-yl)pyrazin-2-yl)-methanone] reads below 0.05 µM.
For `Cc1cnn(-c2cncc(C(=O)N3CCCc4ccccc43)n2)c1` [Compound 84, (3,4-Dihydroquinolin-1(2H)-yl)(6-(4-methyl-1H-pyrazol-1-yl)pyrazin-2-yl)-methanone], the IC50 is below 0.05 µM.
As for `O=C(c1cncc(Cc2ccccc2)n1)N1CCCc2ccccc21` [Compound 85, (6-Benzylpyrazin-2-yl)(3,4-dihydroquinolin-1(2H)-yl)methanone], the figure is 0.201 to 2.5 µM; as for `O=C(Cc1cncc(-c2ccc(F)cc2)c1)N1CCOc2ccccc21` [Compound 86, 1-(2,3-Dihydro-4H-benzo[b][1,4]oxazin-4-yl)-2-(5-(4-fluorophenyl)pyridin-3-yl)ethan-1-one], 0.201 to 2.5 µM; as for `Cc1cc(C)n(-c2cncc(C(=O)N3CCCc4ccccc43)n2)n1` [Compound 87, (3,4-Dihydroquinolin-1(2H)-yl)(6-(3,5-dimethyl-1H-pyrazol-1-yl)pyrazin-2-yl)-methanone], 0.051 to 0.2 µM.
As for `Cc1cnn(-c2cncc(C(=O)N3CCCc4ccccc43)c2)c1` [Compound 88, (3,4-Dihydroquinolin-1(2H)-yl)(5-(4-methyl-1H-pyrazol-1-yl)pyridin-3-yl)-methanone], the figure is below 0.05 µM; as for `Fc1ccc(-c2cncc(CN3CCCc4ccccc43)c2)cc1` [Compound 89, 1-((5-(4-Fluorophenyl)pyridin-3-yl)methyl)-1,2,3,4-tetrahydroquinoline], 0.051 to 0.2 µM; as for `Fc1ccc(-c2cncc(CN3CCc4ccccc43)c2)cc1` [Compound 90, 1-((5-(4-Fluorophenyl)pyridin-3-yl)methyl)indoline], 0.051 to 0.2 µM.
In the case of `Fc1ccc(-c2cncc(CN3CCOc4ccccc43)c2)cc1` [Compound 91], the half-inhibitory concentration (IC50) lay within 0.201 to 2.5 µM.
